“And” between values parts separate entries of the source, which are not always exact repeats. Identical values can stand only once.
Columns and labels:
[1] = tested on: cattle ticks (Boophilus microplus) Parkhurst strain, SP-resistant; experiment: Boophilus microplus dip test (BOOPMI Dip); assay type: in vivo; conditions: application rate 100 ppm, assessed after 7 days
Summary of the method: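 Adult engorged female SP-resistant Parkhurst ticks (8–10) were fully immersed in compound diluted in water from a DMSO solution, then kept in a climate-controlled room. After 7 days, fertile egg-laying was scored, with larval hatching checked at about 42 days; 100% efficacy means no fertile eggs.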

[2] = tested on: engorged adult female cattle ticks (Boophilus microplus); experiment: Boophilus microplus injection test (BOOPMI Inj); assay type: in vivo; conditions: application rate 20 μg/animal; injection into abdomen; assessed after 7 days
Summary of the method: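 Efficacy is read at 7 days as fertile egg laying (100% = no fertile eggs laid; 0% = all eggs fertile), with eggs of unclear fertility stored until larvae hatch at about 42 days. Five engorged adult females per dose each receive an abdominal injection of 1 μl compound dissolved in DMSO.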

[3] = tested on: adult castor bean ticks (Ixodes ricinus); experiment: Ixodes ricinus in vitro contact test with adult castor bean ticks (T3); conditions: after 48 h
Description: T3. Ixodes ricinus-in vitro Contact Tests with Adult Castor Bean Ticks
For the coating of the test tubes, initially 9 mg of active compound are dissolved in 1 ml of acetone p.a. and then diluted with acetone p.a. to the desired concentration. By turning and rocking on an orbital shaker (2 h of rocking rotation at 30 rpm), 250 μl of the solution are distributed homogeneously on the internal walls and the floor of a 25 ml test tube. At 900 ppm active compound solution and 44.7 cm^2 internal surface, an area dose of 5 μg/cm^2 is achieved for homogeneous distribution.
After evaporation of the solvent, the tubes are populated with 5-10 adult castor bean ticks (Ixodes ricinus), sealed with a perforated plastic lid and incubated in a horizontal position in the dark at 22° C. and 90% humidity in a climate-controlled cabinet. After 48 h, the efficacy is determined. To this end, the ticks are knocked to the floor of the tube and incubated on a hotplate at 45-50° C. for at most 5 min. Ticks which remain motionless on the floor or move in an uncoordinated manner such that they are not able to deliberately avoid the heat by climbing upwards are considered to be dead or moribund.
An efficacy of 100% means that all ticks were dead or moribund. 0% efficacy means that none of the ticks had been damaged.

[4] = tested on: L1 larvae of the Australian sheep blowfly (Lucilia cuprina); experiment: Lucilia cuprina test (LUCICU); assay type: in vivo; conditions: application rate 100 ppm; after 2 days
Summary of the method: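 Percent mortality read at 2 days; 100% = all larvae killed, 0% = none. Test compound, predissolved in DMSO and water-diluted to the wanted level, was mixed into minced horsemeat holding roughly 20 first-instar larvae.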

[5] = tested on: larvae of the mustard beetle (Phaedon cochleariae); experiment: Phaedon cochleariae spray test (PHAECO); assay type: in vivo; conditions: Chinese cabbage leaf discs, after 7 days
Summary of the method: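 Kill of mustard beetle larvae is read as % mortality 7 days after spraying. Spray liquid: active compound in acetone plus dimethylformamide, brought up with water holding 1000 ppm alkylaryl polyglycol ether emulsifier and diluted further in emulsifier-water.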

[6] = tested on: adult houseflies (Musca domestica); experiment: Musca domestica test (MUSCDO); assay type: in vivo; conditions: application rate 100 ppm; after 2 days
Summary of the method: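 Groups of 10 adult Musca domestica exposed to a sugar-soaked sponge treated with the water-diluted DMSO preparation of compound at the chosen concentration. Percent kill read at day 2, where 0% means no flies killed and 100% all killed.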

[7] = tested on: bont tick nymphs (Amblyomma hebraeum); conditions: after 48 h
[8] = tested on: greenhouse red spider mite (Tetranychus urticae); experiment: Tetranychus urticae spray test, OP-resistant (TETRUR); assay type: in vivo; conditions: bean leaf discs, after 6 days
Summary of the method: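 Percent kill, scored 6 days post-spray (0% = none dead, 100% = all dead), on Phaseolus vulgaris leaf discs infested with every life stage of the OP-resistant spider mite. Compound dissolved in acetone plus DMF, diluted to test concentration with emulsifier-containing water (1000 ppm).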

[9] = tested on: caterpillars of the armyworm (Spodoptera frugiperda); experiment: Spodoptera frugiperda spray test (SPODFR); assay type: in vivo; conditions: maize leaf discs, after 7 days
Summary of the method: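 Percent kill read at day 7 on caterpillar-infested maize leaf discs. Discs were first sprayed with aqueous emulsifier-containing (1000 ppm) preparations made from acetone/dimethylformamide solutions, and dried. Scale: 0% none dead, 100% all dead.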

[10] = tested on: Tick nymphs (Amblyomma hebraeum); experiment: Amblyomma hebraeum test (AMBYHE), tick nymphs immersed; assay type: in vivo; conditions: application rate 100 ppm; immersed one minute; after 42 days
Description: A. Amblyomma hebaraeum Test (AMBYHE)
Solvent: dimethyl sulphoxide
To produce a suitable preparation of active compound, 10 mg of active compound are mixed with 0.5 ml of dimethyl sulfoxide, and the concentrate is diluted with water to the desired concentration.
Tick nymphs (Amblyomma hebraeum) are placed into perforated plastic beakers and immersed in the desired concentration for one minute. The ticks are transferred on filter paper into a Petri dish and stored in a climate-controlled cabinet.
After 42 days, the kill in % is determined. 100% means that all of the ticks have been killed; 0% means that none of the ticks have been killed.

Compound | efficacy (laying of fertile eggs) [1] [%] | efficacy (laying of fertile eggs) [2] [%] | efficacy (dead or moribund ticks) ([3]; application rate 1 μg/cm^2) [%] | efficacy (dead or moribund ticks) ([3]; application rate 5 μg/cm^2) [%] | efficacy (kill in %) [4] [%] | efficacy in % ([5]; application rate 100 g/ha) [%] | efficacy (kill in %) [6] [%] | efficacy (dead or moribund ticks) [7] | efficacy in % ([8]; application rate 100 g/ha) [%] | efficacy in % ([9]; application rate 100 g/ha) [%] | efficacy (kill in %) [10] [%] | efficacy in % ([5]; application rate 500 g/ha) [%] | efficacy in % ([8]; application rate 500 g/ha) [%] | efficacy in % ([9]; application rate 500 g/ha) [%]
Cn1nc(C(F)(F)C(F)(F)F)c(C(F)(F)F)c1-n1ccc(-c2ccc(Cl)c(C(=O)NC3(C#N)CC3)c2)c1 [Ia-1] | 100 | 100 | 100 | 100 | 100 | 100 | 80 | 100% | 100 | 100 | 100 | – | – | –
Cn1nc(C(F)(F)C(F)(F)F)c(C(F)(F)F)c1-n1ccc(-c2ccc(Cl)c(C(=O)NC3CC3)c2)c1 [Ia-2] | 100 | 100 | 100 | 100 | 100 | 100 | 90 | 100% | 90 | 100 | 100 | – | – | –
Cn1nc(C(F)(F)C(F)(F)F)c(C(F)(F)F)c1-n1cnc(-c2ccc(Cl)c(C(=O)NC3CC3)c2)c1 [Ib-3] | 100 | 100 | 80 | 80 | 100 | 100 | 100 | 100% and 80% | 100 | 100 | 100 | – | – | –
Cn1nc(C(F)(F)C(F)(F)F)c(C(F)(F)F)c1-n1cc(-c2ccc(Cl)c(C(=O)NC3CC3)c2)cn1 [Ic-1, 2-Chloro-N-cyclopropyl-5-[2′-methyl-5′-(pentafluoroethyl)-4′-(trifluoromethyl)-2′H-1,3′-bipyrazol-4-yl]benzamide] | 100 | 100 | 100 | 100 | 100 | – | 100 | 100% | – | – | 100 | 100 | 100 | 100
Cn1nc(C(F)(F)C(F)(F)F)c(C(F)(F)F)c1-n1cc(-c2ccc(Cl)c(C(=O)NC3(C#N)CC3)c2)cn1 [Ic-2] | 100 | 100 | 100 | 100 | 100 | 100 | 100 | 100% | 100 | 100 | 100 | – | – | –
Cn1nc(C(F)(F)C(F)(F)F)c(C(F)(F)F)c1-n1cc(-c2ccc(Cl)c(C(=O)NC3(C(N)=S)CC3)c2)cn1 [Ic-11] | 100 | 100 | 80 | 100 | 100 | 100 | 100 | 100% | 90 | 100 | 100 | – | – | –
CCn1nc(C(F)(F)C(F)(F)F)c(C(F)(F)F)c1-n1cc(-c2ccc(Cl)c(C(=O)NC3CC3)c2)cn1 [Ic-16] | 100 | 100 | 100 | 100 | 100 | 100 | 100 | 100% | – | 100 | 100 | – | – | –
Cn1nc(C(F)(F)C(F)(F)F)c(C(F)(F)F)c1-n1cc(-c2cc(F)c(Cl)c(C(=O)NC3CC3)c2)cn1 [Ic-24] | 100 | 100 | – | – | 100 | – | 100 | – | – | – | 100 | 100 | 100 | 100
Cn1nc(C(F)(F)C(F)(F)F)c(C(F)(F)F)c1-n1cc(-c2cc(F)c(Cl)c(C(=O)NC3(C#N)CC3)c2)cn1 [Ic-27] | 100 | 100 | – | – | 100 | – | 100 | – | – | – | 100 | 100 | 100 | 100
Cn1nc(C(F)(F)C(F)(F)F)c(C(F)(F)F)c1-n1cc(-c2ccc(Br)c(C(=O)NC3(C#N)CC3)c2)cn1 [Ic-34] | 100 | 100 | – | – | 100 | 100 | 100 | – | 100 | 100 | 100 | – | – | –
Cn1nc(C(F)(F)C(F)(F)F)c(C(F)(F)F)c1-n1cc(-c2ccc(F)c(C(=O)NC3(C#N)CC3)c2)cn1 [Ic-36] | 100 | 100 | – | – | 100 | 100 | 100 | – | 100 | 100 | 100 | – | – | –
Cn1nc(C(F)(F)C(F)(F)F)c(C(F)(F)F)c1-n1cc(-c2ccc([N+](=O)[O-])c(C(=O)NC3CC3)c2)cn1 [Ic-66] | 100 | 100 | – | – | 100 | 100 | 100 | – | 100 | 100 | – | – | – | –
Cn1nc(C(F)(F)C(F)(F)F)c(C(F)(F)F)c1-n1cc(-c2ccc(Cl)c(C(=O)NCC(F)F)c2)cn1 [Ic-78] | 100 | 100 | – | – | 100 | 100 | 100 | – | 100 | 100 | – | – | – | –
Cn1nc(C(F)(F)C(F)(F)F)c(C(F)(F)F)c1-n1cc(-c2ccc(Cl)c(C(=O)NC3CC3F)c2)cn1 (stereo not shown) [Ic-81] | 100 | 100 | 100 | 100 | 100 | 100 | 100 | 100% | 100 | 100 | – | – | – | –
CN(C(=O)c1cc(-c2cnn(-c3c(C(F)(F)F)c(C(F)(F)C(F)(F)F)nn3C)c2)ccc1Cl)C1(C#N)CC1 [Ic-96] | 100 | 100 | – | – | 100 | 100 | 100 | – | 100 | 100 | – | – | – | –

From patent US9487489B2, “Halogen-substituted pyrazole derivatives as pest-control agents” (BAYER CROPSCIENCE AKTIENGESELLSCHAFT, priority 2013, dated 2016)
